Our source for the IC50 values is PubChem BioAssay AID1117350 (Cheminformatics & Chemogenomics Research Group (CCRG), …, 2015).

Structures are written as SMILES. Calls of active or inactive are those of the source. How the calls were made is not given here.

The assay has as its system HeLa, chromatin condensation phenotype imaging. The assay can be described thus: condensed chromatin phenotype in HeLa cells – imaging, IC50, dose response (AID 1117350).
With `O=C(NOCC1CC1)c1ccc(F)c(F)c1Nc1ccc(I)cc1Cl`, the IC50 (commonly the concentration at which inhibition is half-maximal) is > 10 µM (inactive).

`COc1ccc2cc3[n+](cc2c1OC)CCc1cc2c(cc1-3)OCO2`: the IC50 was > 10 µM (inactive). The figure for `Nc1ccc2cc3ccc(N)cc3nc2c1` is 2.47 µM; for `COc1cc(NCc2ccc3nc(N)nc(N)c3c2C)cc(OC)c1OC` it is > 10 µM (inactive); for `COC(=O)Nc1nc2ccc(Sc3ccccc3)cc2[nH]1` it is 0.228 µM. Next, `CCCCc1ccc2nc(NC(=O)OC)[nH]c2c1`: 0.00717 µM.

Turning to `Oc1ccc([C@H]2CNCc3c2ccc(O)c3O)cc1O`, the IC50 is > 10 µM (inactive). The figure for `Clc1ccc(Nc2nnc(Cc3ccncc3)c3ccccc23)cc1` is > 10 µM (inactive); for `CCCN(CCC)C(=O)C(CCC(=O)OCCCN1CCN(CCOC(=O)Cc2c(C)n(C(=O)c3ccc(Cl)cc3)c3ccc(OC)cc23)CC1)NC(=O)c1ccccc1` (stereo not drawn) it is > 10 µM (inactive); for `CCc1nc(N)nc(N)c1-c1ccc(Cl)cc1` it is > 10 µM (inactive). The figure for `Nc1nc(F)nc2c1ncn2[C@@H]1O[C@H](CO)[C@@H](O)[C@@H]1O` is > 10 µM (inactive); for `CC(=O)Nc1ccn(C2COC(COC(=O)c3ccccc3)O2)c(=O)n1` (stereo not drawn) it is > 10 µM (inactive); for `CC(=O)[C@]1(O)Cc2c(O)c3c(c(O)c2[C@@H](O[C@H]2C[C@H](N)[C@H](O)[C@H](C)O2)C1)C(=O)c1ccccc1C3=O` it is 0.659 µM. `CC[C@@]1(O)C(=O)OCc2c1cc1n(c2=O)Cc2cc3c(CN(C)C)c(O)ccc3nc2-1`: the IC50 is > 10 µM (inactive).

With `COc1cccc2c1C(=O)c1c(O)c3c(c(O)c1C2=O)C[C@@](O)(C(=O)CO)C[C@@H]3O[C@H]1C[C@H](N)[C@H](O[C@@H]2CCCCO2)[C@H](C)O1`, the IC50 was > 10 µM (inactive).

In the case of `COC(=O)Nc1nc2ccc(C(=O)C3CC3)cc2[nH]1`, the IC50 is 0.402 µM.

`CC[n+]1c(-c2ccccc2)c2cc(N)ccc2c2ccc(N)cc21`: the IC50 was > 10 µM (inactive). Next, `CN(Cc1cnc2nc(N)nc(N)c2n1)c1ccc(C(=O)N[C@@H](CCC(=O)O)C(=O)O)cc1`: > 10 µM (inactive); `O=[N+]([O-])c1ccc(Oc2ccc(N=C=S)cc2)cc1`: > 10 µM (inactive).

On to `CC(C)c1c(C(=O)Nc2ccccc2)c(-c2ccccc2)c(-c2ccc(F)cc2)n1CC[C@@H](O)C[C@@H](O)CC(=O)O`, for which the IC50 was > 10 µM (inactive). `CC(=O)Oc1ccc(C2(c3ccc(OC(C)=O)cc3)Oc3ccccc3NC2=O)cc1`: the IC50 was > 10 µM (inactive). With `CCN(CCCCOC(=O)c1ccc(OC)c(OC)c1)C(C)Cc1ccc(OC)cc1` (stereo not drawn), the IC50 was > 10 µM (inactive). `O=C1c2c(O)cccc2Cc2cccc(O)c21`: the IC50 is > 10 µM (inactive).

Regarding `CN1CCC(Nc2ncc3ncnc(Nc4ccc(F)c(Cl)c4)c3n2)CC1`, the IC50 is > 10 µM (inactive). The figure for `CO[C@@H]1[C@@H](OC)[C@H](C)[C@@](O)(CC(=O)O)O[C@H]1[C@H](C)[C@H]1O[C@@]2(CC[C@@](C)([C@H]3CC[C@@](C)([C@@H]4O[C@@H]([C@H]5O[C@](C)(O)[C@H](C)C[C@@H]5C)C[C@@H]4OC4C[C@H](OC)[C@@H](OC)[C@H](C)O4)O3)O2)C[C@H](O)[C@H]1C` (stereo partly drawn) is > 10 µM (inactive); for `CC[C@]1(O)C[C@H]2CN(CCc3c([nH]c4ccccc34)[C@@](C(=O)OC)(c3cc4c(cc3OC)N(C=O)[C@H]3[C@@](O)(C(=O)OC)[C@H](OC(C)=O)[C@]5(CC)C=CCN6CC[C@]43[C@@H]65)C2)C1` it is 0.0061 µM; for `O=C1C(I)=CC(=C(c2cc(I)c(O)c(I)c2)c2ccccc2C(=O)O)C=C1I` it is > 10 µM (inactive). Next, `Cc1cc(C2CCCCC2)n(O)c(=O)c1`: > 10 µM (inactive).

In the case of `Cc1cc(CC(C)CC(C)(C)C)n(O)c(=O)c1` (stereo not drawn), the IC50 was > 10 µM (inactive). As to `COC(=O)Nc1nc2ccc(C(=O)c3cccs3)cc2[nH]1`, the IC50 is 0.0134 µM. In the case of `O=[N+]([O-])c1ccc(O)c2ncccc12`, the IC50 is > 10 µM (inactive).

`CC(C)C[C@H](NC(=O)[C@H](CCc1ccccc1)NC(=O)CN1CCOCC1)C(=O)N[C@@H](Cc1ccccc1)C(=O)N[C@@H](CC(C)C)C(=O)[C@@]1(C)CO1`: the IC50 was > 10 µM (inactive). Next, `CC[C@@]1(O)C(=O)OCc2c1cc1n(c2=O)Cc2c-1nc1ccccc1c2/C=N/OC(C)(C)C`: > 10 µM (inactive); `CCN(CC)CCOc1ccccc1C(=O)CCc1ccccc1`: > 10 µM (inactive); `NC(=NCCCCCCN=C(N)/N=C(\N)Nc1ccc(Cl)cc1)/N=C(\N)Nc1ccc(Cl)cc1`: > 10 µM (inactive). Next, `O=c1c(-c2ccccc2)c1-c1ccccc1`: > 10 µM (inactive). The figure for `Nc1nc(Cl)nc2c1ncn2[C@@H]1O[C@H](CO)[C@@H](O)[C@@H]1F` is > 10 µM (inactive); for `CC(=O)N(O)CCCCCNC(=O)CCC(=O)N(O)CCCCCNC(=O)CCC(=O)N(O)CCCCCN` it is > 10 µM (inactive); for `CCCCCCCCCCCC[N+](C)(C)Cc1ccccc1` it is > 10 µM (inactive). As for `CO[C@@]12[C@H](COC(N)=O)C3=C(C(=O)C(C)=C(N)C3=O)N1C[C@@H]1N[C@@H]12`, the IC50 was > 10 µM (inactive). The figure for `Cc1nc(Nc2ncc(C(=O)Nc3c(C)cccc3Cl)s2)cc(N2CCN(CCO)CC2)n1` is > 10 µM (inactive); for `CCCCCCCCCCCCCCCC[n+]1ccccc1` it is 0.515 µM. For the compound `O=c1[nH]c(=O)n([C@H]2C[C@H](O)[C@@H](CO)O2)cc1I`, the IC50 was > 10 µM (inactive). The figure for `CCc1oc2ccccc2c1C(=O)c1cc(Br)c(O)c(Br)c1` is > 10 µM (inactive); for `O=C1C(=O)c2ccccc2C(O)=C1C1CCC(c2ccc(Cl)cc2)CC1` (stereo not drawn) it is > 10 µM (inactive). Next, `CCCCCCCCCCCCCC[N+](C)(C)C`: > 10 µM (inactive); `COc1cc(NC(C)CCCN)c2ncccc2c1` (stereo not drawn): > 10 µM (inactive); `CN(C)c1ccc2nc3ccc(=[N+](C)C)cc-3sc2c1`: > 10 µM (inactive). For the compound `C[C@]12CC[C@@H]3c4ccc(O)cc4CC[C@H]3[C@@H]1CC[C@@H]2OC(=O)CCC1CCCC1`, the IC50 was > 10 µM (inactive).

For `CCC(C)n1ncn(-c2ccc(N3CCN(c4ccc(OC[C@H]5CO[C@](Cn6cncn6)(c6ccc(Cl)cc6Cl)O5)cc4)CC3)cc2)c1=O` (stereo partly drawn), the IC50 is > 10 µM (inactive). Next, `CC[C@H](C)C(=O)O[C@H]1C[C@@H](C)C=C2C=C[C@H](C)[C@H](CC[C@@H]3C[C@@H](O)CC(=O)O3)[C@H]21`: > 10 µM (inactive); `COc1ccc2cc1Oc1ccc(cc1)C[C@H]1c3c(cc4c(c3Oc3cc5c(cc3OC)CCN(C)[C@@H]5C2)OCO4)CCN1C`: > 10 µM (inactive). The figure for `Cc1nc2ccccc2n1Cc1ccc(Cl)cc1` is > 10 µM (inactive); for `CN1CC[C@H](c2c(O)cc(O)c3c(=O)cc(-c4ccccc4Cl)oc23)[C@H](O)C1` it is 0.0807 µM; for `C1CN(P2(N3CC3)=NP(N3CC3)(N3CC3)=NP(N3CC3)(N3CC3)=N2)CCO1` (stereo not drawn) it is > 10 µM (inactive). For `CCCCOC(=O)c1ccc(N)cc1`, the IC50 was > 10 µM (inactive).

On to `CCCCCCCCCCCCCCCCCCNC(=O)OC1CCN(C(=O)OC[C@H](COC(=O)N(Cc2cccc[n+]2CC)C(=O)c2ccccc2OC)OC)CC1`, for which the IC50 was > 10 µM (inactive). `N[C@@H](Cc1ccc(N(CCCl)CCCl)cc1)C(=O)O`: the IC50 is > 10 µM (inactive). The figure for `CN(C)CCOC(c1ccccc1)c1ccc(Br)cc1` (stereo not drawn) is > 10 µM (inactive); for `COc1ccc(/C=C/C(=O)c2ccc(OC)cc2OC)cc1` it is > 10 µM (inactive); for `O=C(c1cc(O)c(O)c(O)c1)c1ccc(O)c(O)c1O` it is > 10 µM (inactive). The figure for `Nc1nc(=O)n([C@@H]2O[C@H](CO)[C@@H](O)[C@@H]2F)cc1I` is > 10 µM (inactive); for `[O-][n+]1ccccc1SSc1cccc[n+]1[O-]` it is 2.23 µM; for `NCCCC[C@H](N[C@@H](CCc1ccccc1)C(=O)O)C(=O)N1CCC[C@H]1C(=O)O` it is > 10 µM (inactive). The figure for `COCc1c(C(C)C)nc(C(C)C)c(/C=C/[C@@H](O)C[C@@H](O)CC(=O)O)c1-c1ccc(F)cc1` is > 10 µM (inactive); for `CN1CCCC(CC2c3ccccc3Sc3ccccc32)C1` (stereo not drawn) it is > 10 µM (inactive); for `COc1ccc(-c2nc3ccc(C4=NNC(=O)CC4C)cc3[nH]2)cc1` (stereo not drawn) it is > 10 µM (inactive).

For the compound `CCN1/C(=C/C=C/c2sc3ccccc3[n+]2CC)Sc2ccccc21`, the IC50 is 4.48 µM.

As to `CC(C)=CCNc1ncnc2c1ncn2[C@@H]1O[C@H](CO)[C@@H](O)[C@H]1O`, the IC50 was > 10 µM (inactive). On to `Nc1nc(=S)c2[nH]cnc2[nH]1`, for which the IC50 was > 10 µM (inactive). The figure for `Cc1cc(=O)c2c(O)c3c(O)cc(=O)c4c3c3c(cc(O)c1c23)C(C)(C)C=4O` is > 10 µM (inactive). Take `CC(C)=CCC/C(C)=C/CC/C(C)=C/C(=O)OCC(=O)[C@@]1(O)CC[C@H]2[C@@H]3CCC4=CC(=O)C=C[C@]4(C)[C@H]3[C@@H](O)C[C@@]21C`: the IC50 is > 10 µM (inactive). Take `Oc1c(Cl)cc(Cl)c2cccnc12`: the IC50 is > 10 µM (inactive).

On to `CC(=O)O[C@@]12CO[C@@H]1C[C@H](O)[C@@]1(C)C(=O)[C@H](O)C3=C(C)[C@@H](OC(=O)[C@H](O)[C@@H](NC(=O)OC(C)(C)C)c4ccccc4)C[C@@](O)([C@@H](OC(=O)c4ccccc4)[C@H]21)C3(C)C`, for which the IC50 is 0.00317 µM.

For the compound `CN(C)/N=N/c1nc[nH]c1C(N)=O`, the IC50 was > 10 µM (inactive). Next, `CCCNCC(O)COc1ccccc1C(=O)CCc1ccccc1` (stereo not drawn): > 10 µM (inactive); `CCCCCCCCCCCCCCCC[N+](C)(C)CCN(Cc1ccc(OC)cc1)c1ncccn1`: > 10 µM (inactive). Regarding `COC(=O)[C@H]1[C@H]2C[C@@H]3c4[nH]c5cc(OC)ccc5c4CCN3C[C@H]2C[C@@H](OC(=O)/C=C/c2ccc(O)c(OC)c2)[C@@H]1OC`, the IC50 was > 10 µM (inactive).
